# Measurements as given in patent US4714705A, “4-nitrogen substituted isoquinolinol compounds having cardiotonic, phosphodiesterase fraction III inhibiting properties and/or renal vasodilating properties” (Ortho Pharmaceutical Corporation, priority 1986, dated 1987).
# Like-named read-outs stand apart in the source and are kept apart here.
# Tested on: adult mongrel dogs
# Experiment: Renal vasodilating activity in anesthetized dogs
# Type: in vivo, dog (adult mongrel)
# Conditions: Canis lupus familiaris; for change in vivo at 0.2 mg/kg: 0.2 mg/kg intravenous
# Protocol: Goldberg et al, J. Pharmacol. Exp. Ther., 163, 188 (1968), performed an investigation of the structural requirements for dopamine-like renal vasodilation of phenethylamines and apmorphine. The following procedure is a variation of the assay described in that report.
# Adult mongrel dogs were anesthetized and surgically prepared for electromagnetic measurement of renal artery blood flow. A carotid artery was cannulated for measuring arterial blood pressure, and drugs were administered intravenously or intraarterially (via the renal artery). Heart rate was monitored with a cardiotachometer. Renal vascular resistance was calculated as the ratio of mean arterial blood pressure/renal artery blood flow. Dopamine was infused intravenously at […] for ten minutes (at an infusion rate of about 1 ml/min) to determine responsiveness of each dog to renal dopamine receptor stimulation. Cumulative dose-response data were obtained by infusing a compound of this invention at progressively increasing (usually three-fold) infusion rates, esch dose being infused for five minutes. The maximum percent increase from pre-drug control in renal artery blood flow (or a decrease in renal vascular resistance) was determined for each infusion dose.
# RBF values are percent increase in renal blood flow. RVR values are percent increase in renal vascular resistance. MABP and HR are increases in mean arterial blood pressure and heart rate, respectively, relative to controls.
# [1] = 6.2 mg/kg intravenous, relative to controls, read-out: HR, percent change in heart rate
# [2] = 6.2 mg/kg intravenous, relative to controls, read-out: MABP, mean arterial blood pressure
# [3] = 6.2 mg/kg intravenous, relative to controls, read-out: RBF, renal blood flow
# [4] = 6.2 mg/kg intravenous, relative to controls, read-out: RVR, renal vascular resistance
# [5] = 1.2 mg/kg intravenous, relative to controls, read-out: HR, percent change in heart rate
# [6] = 1.2 mg/kg intravenous, relative to controls, read-out: MABP, mean arterial blood pressure
# [7] = 1.2 mg/kg intravenous, relative to controls, read-out: RBF, renal blood flow
# [8] = 1.2 mg/kg intravenous, relative to controls, read-out: RVR, renal vascular resistance
# [9] = iv, read-out: HR, percent change in heart rate
SMILES,change in vivo at 6.2 mg/kg [1] [%],change in vivo at 6.2 mg/kg [2] [%],change in vivo at 6.2 mg/kg [3] [%],change in vivo at 6.2 mg/kg [4] [%],change in vivo at 1.2 mg/kg [5] [%],change in vivo at 1.2 mg/kg [6] [%],change in vivo at 1.2 mg/kg [7] [%],change in vivo at 1.2 mg/kg [8] [%],also measured
CCOc1cc2c(C)nc(O)c(NC(=O)NCc3ccccc3)c2cc1OC [BAJ],-6,-11,54,-32,–,–,–,–,–
CCOc1cc2c(NC(=O)Nc3ccc(OC)cc3)c(O)nc(C)c2cc1OC [BAV],9,-5,35,-29,–,–,–,–,–
"COc1ccc(NC(=O)Nc2c(O)nc(C)c3cc(OC)c(OC)cc23)cc1 [BP, 4-(N'-para-methoxyphenylureido)-3-hydroxy-6,7-dimethoxy-1-methylisoquinoline]",2,12,68,-32,–,–,–,–,–
"COc1cc2c(C)nc(O)c(NC(=O)Nc3ccc(C(=O)O)cc3)c2cc1OC [Compound BCA, 4-[N-(4-Carboxyphenyl)ureido]-3-hydroxy-6,7-dimethoxy-1-methylisoquinoline.5/2 Hydrate]",–,–,–,–,-12,-1,40,-28,–
COc1cc2c(C)nc(O)c(NC(=O)NCCc3ccccc3)c2cc1OC [BBM],–,–,–,–,–,–,–,–,"change in vivo at 0.2 mg/kg (relative to controls, read-out: HR, percent change in heart rate): -1%; change in vivo at 0.2 mg/kg (relative to controls, read-out: RBF, renal blood flow): 12%; change in vivo at 0.2 mg/kg (relative to controls, read-out: RVR, renal vascular resistance): -10%"
CCOc1cc2c(C)nc(O)c(NC(N)=O)c2cc1OC [BS],4,–,33,-24,–,–,–,–,–
COc1ccc(NC(=O)Nc2c(O)nc(C)c3cc(OC)ccc23)cc1 [BBS],–,–,–,–,5,2,17,-4,–
COc1cc2c(C)nc(O)c(NC(=O)NC3CCCCC3)c2cc1OC [BBE],–,–,–,–,2,3,24,-16,–
"CCCCOC(=O)Nc1c(O)nc(C)c2cc(OC)c(OC)cc12 [Compound BBP, 4-[N-(n-Butoxycarbonyl)amino]-3-hydroxy-6,7-dimethoxy-1-methylisoquinoline]",–,1,77,-42,–,–,–,–,–
COc1cc2c(C)nc(O)c(NC(=O)NC(C)(C)C)c2cc1OC [BAU],4,-3,12,-13,–,–,–,–,–
"C=CCNC(=O)Nc1c(O)nc(C)c2cc(OC)c(OC)cc12 [BAO, 4-(N'-allylureido)-3-hydroxy-6,7-dimethoxy-1-methylisoquinoline]",–,–,–,–,-3,8,96,-44,–
COc1ccc(NC(=O)Nc2c(O)nc(C)c3cc(OC)c(OC)cc23)c(OC)c1 [BAP],–,–,–,–,-1,-14,17,-26,–
CNC(=O)Nc1c(O)nc(C)c2cc(OC)c(OC)cc12 [BBY],–,–,–,–,-4,6,21,-12,–
"COc1cc2c(C)nc(O)c(NC(=O)Nc3ccc([S+](C)[O-])cc3)c2cc1OC (stereo not drawn) [Compound BCB, Hydrate]",–,–,–,–,-1,5,12,-6,–
COc1cccc(NC(=O)Nc2c(O)nc(C)c3cc(OC)c(OC)cc23)c1 [BAE],-2,–,58,-36,–,–,–,–,–
COc1ccc(NC(=O)Nc2c(O)ncc3cc(OC)c(OC)cc23)cc1 [BBG],–,–,–,–,–,1,15,-11,change in vivo at 1.2 mg/kg [9]: 12%

SMILES,change in vivo at 6.2 mg/kg [1] [%],change in vivo at 6.2 mg/kg [2] [%],change in vivo at 6.2 mg/kg [3] [%],change in vivo at 6.2 mg/kg [4] [%],change in vivo at 1.2 mg/kg [5] [%],change in vivo at 1.2 mg/kg [6] [%],change in vivo at 1.2 mg/kg [7] [%],change in vivo at 1.2 mg/kg [8] [%],also measured
CCOc1cc2c(NC(=O)Nc3ccc(SC)cc3)c(O)nc(C)c2cc1OC [BBA],2,23,53,-17,–,–,–,–,–
COc1ccc(NC(=O)Nc2c(O)nc(C)c3cc(OC)c(OC)cc23)cc1OC [BBL],–,–,–,–,-1,5,13,-8,–
CCCCCCCCNC(=O)Nc1c(O)nc(C)c2cc(OC)c(OC)cc12 [BBF],–,–,–,–,-14,–,19,-24,–
COc1cc2c(C)nc(O)c(NC(=O)Nc3ccc(N)cc3)c2cc1OC [BBZ],–,–,–,–,8,5,22,-12,–
COC(=O)Nc1c(O)nc(C)c2cc(OC)c(OC)cc12 [BBR],27,-7,30,-29,–,–,–,–,–
COc1cc2c(C)nc(O)c(NC(=O)NCCCl)c2cc1OC [BAY],–,–,–,–,–,–,–,–,"change in vivo at 6.2 mg/kg [9]: 27%; change in vivo at 6.2 mg/kg (iv, read-out: MABP, mean arterial blood pressure): 19%; change in vivo at 6.2 mg/kg (iv, read-out: RBF, renal blood flow): 85%; change in vivo at 6.2 mg/kg (iv, read-out: RVR, renal vascular resistance): -35%"
COc1cc2c(C)nc(O)c(NC(=O)Nc3ccc(C#N)cc3)c2cc1OC [BBX],–,–,–,–,-11,-11,12,-20,–
CCOc1cc2c(C)nc(O)c(NC(=O)Nc3ccc(C(F)(F)F)cc3)c2cc1OC [BV],26,-6,25,-24,–,–,–,–,–
CCNC(=O)Nc1c(O)nc(C)c2cc(OC)c(OC)cc12 [BCD],–,–,–,–,–,–,28,-22,–
COc1cc2c(C)nc(O)c(NC(=O)Nc3ccc([N+](=O)[O-])cc3)c2cc1OC [BAR],–,–,–,–,–,–,9,-8,–
COc1cc2c(C)nc(O)c(NC(=O)Nc3cccc(Cl)c3)c2cc1OC [BAF],4,–,30,-20,–,–,–,–,–
"CCCCNC(=O)Nc1c(O)nc(C)c2cc(OC)c(OC)cc12 [Compound BR, 4-(N'-n-Butylureido)-3-hydroxy-6,7-dimethoxy-1-methylisoquinoline Hemihydrate]",-9,-1,128,-56,–,–,–,–,–
COc1cc2c(C)nc(O)c(NC(=O)Nc3ccc(C(F)(F)F)cc3)c2cc1OC [BAD],–,4,49,-29,–,–,–,–,change in vivo at 6.2 mg/kg [9]: 10%
"COc1cc2c(C)nc(O)c(NC(N)=O)c2cc1OC [Compound BM, 6,7-Dimethoxy-3-hydroxy-1-methyl-4-ureidoisoquinoline]",-10,18,59,-23,–,–,–,–,–
COc1cc2c(C)nc(O)c(NC(=O)Nc3cccc(C(F)(F)F)c3)c2cc1OC [BAG],-10,2,23,-16,–,–,–,–,–
